Activity calls are given as the source filed them. No cut-off for these calls is given here.
Assays:
[1] = molecular target: Myosin light chain kinase family member 4 (Homo sapiens) (UniProt Q86YV6); details: Compound concentration 1000.0 nM
[2] = molecular target: Receptor-type tyrosine-protein kinase FLT3 (Homo sapiens) (UniProt P36888); details: Compound concentration 1000.0 nM
[3] = molecular target: Peripheral plasma membrane protein CASK (Homo sapiens) (UniProt O14936); details: Compound concentration 1000.0 nM
[4] = molecular target: Serine/threonine-protein kinase 24 (Homo sapiens) (UniProt Q9Y6E0); details: Compound concentration 1000.0 nM
[5] = molecular target: Tyrosine-protein kinase ABL2 (Homo sapiens) (UniProt P42684); details: Compound concentration 1000.0 nM
[6] = molecular target: Epidermal growth factor receptor (Homo sapiens) (UniProt P00533); details: Compound concentration 1000.0 nM
[7] = molecular target: Interferon-induced, double-stranded RNA-activated protein kinase (Homo sapiens) (UniProt P19525); details: Compound concentration 1000.0 nM
[8] = tested on: ALK tyrosine kinase receptor (Homo sapiens), Q9UM73 [L1196M]; details: Compound concentration 1000.0 nM
[9] = molecular target: Activated CDC42 kinase 1 (Homo sapiens) (UniProt Q07912); details: Compound concentration 1000.0 nM
[10] = molecular target: Phosphatidylinositol 4,5-bisphosphate 3-kinase catalytic subunit gamma isoform (Homo sapiens) (UniProt P48736); details: Compound concentration 1000.0 nM
[11] = tested on: Mast/stem cell growth factor receptor Kit (Homo sapiens), P10721 [V559D,V654A]; details: Compound concentration 1000.0 nM
[12] = molecular target: Protein kinase C eta type (Homo sapiens) (UniProt P24723); details: Compound concentration 1000.0 nM
[13] = molecular target: Receptor tyrosine-protein kinase erbB-2 (Homo sapiens) (UniProt P04626); details: Compound concentration 1000.0 nM
[14] = molecular target: Vascular endothelial growth factor receptor 1 (Homo sapiens) (UniProt P17948); details: Compound concentration 1000.0 nM
[15] = tested on: Epidermal growth factor receptor (Homo sapiens), P00533 [UNDEFINED MUTATION]; details: Compound concentration 1000.0 nM
[16] = molecular target: Ribosomal protein S6 kinase alpha-1 (Homo sapiens) (UniProt Q15418); details: Compound concentration 1000.0 nM
[17] = molecular target: Calcium/calmodulin-dependent protein kinase type IV (Homo sapiens) (UniProt Q16566); details: Compound concentration 1000.0 nM
[18] = molecular target: D(1A) dopamine receptor (Homo sapiens) (UniProt P21728); details: Compound concentration 10.0 uM
[19] = molecular target: Interleukin-1 receptor-associated kinase 1 (Homo sapiens) (UniProt P51617); details: Compound concentration 1000.0 nM
[20] = molecular target: LIM domain kinase 1 (Homo sapiens) (UniProt P53667); details: Compound concentration 1000.0 nM
[21] = tested on: Proto-oncogene tyrosine-protein kinase receptor Ret (Homo sapiens), P07949 [V804L]; details: Compound concentration 1000.0 nM
[22] = molecular target: Serine/threonine-protein kinase 17A (Homo sapiens) (UniProt Q9UEE5); details: Compound concentration 1000.0 nM
[23] = molecular target: Cyclin-dependent kinase-like 1 (Homo sapiens) (UniProt Q00532); details: Compound concentration 1000.0 nM
[24] = molecular target: Receptor tyrosine-protein kinase erbB-3 (Homo sapiens) (UniProt P21860); details: Compound concentration 1000.0 nM
[25] = molecular target: Focal adhesion kinase 1 (Homo sapiens) (UniProt Q05397); details: Compound concentration 1000.0 nM
[26] = molecular target: Serine/threonine-protein kinase D1 (Homo sapiens) (UniProt Q15139); details: Compound concentration 1000.0 nM
[27] = molecular target: Mitogen-activated protein kinase 15 (Homo sapiens) (UniProt Q8TD08); details: Compound concentration 1000.0 nM
[28] = molecular target: Homeodomain-interacting protein kinase 3 (Homo sapiens) (UniProt Q9H422); details: Compound concentration 1000.0 nM
[29] = molecular target: G protein-coupled receptor kinase 4 (Homo sapiens) (UniProt P32298); details: Compound concentration 1000.0 nM
[30] = molecular target: Serine/threonine-protein kinase MAK (Homo sapiens) (UniProt P20794); details: Compound concentration 1000.0 nM
[31] = molecular target: Megakaryocyte-associated tyrosine-protein kinase (Homo sapiens) (UniProt P42679); details: Compound concentration 1000.0 nM
[32] = molecular target: Tyrosine-protein kinase ABL1 (Homo sapiens) (UniProt P00519); details: Compound concentration 1000.0 nM
[33] = molecular target: Interleukin-1 receptor-associated kinase 4 (Homo sapiens) (UniProt Q9NWZ3); details: Compound concentration 1000.0 nM
[34] = molecular target: Macrophage metalloelastase (Homo sapiens, UniProt P39900); assay: Biochemical assay (MMP12)
[35] = molecular target: Mitogen-activated protein kinase kinase kinase kinase 4 (Homo sapiens) (UniProt O95819); details: Compound concentration 1000.0 nM
[36] = molecular target: Sodium-dependent noradrenaline transporter (Homo sapiens) (UniProt P23975); details: Compound concentration 10.0 uM
[37] = molecular target: Mitogen-activated protein kinase kinase kinase 1 (Homo sapiens) (UniProt Q13233); details: Compound concentration 1000.0 nM
[38] = molecular target: Macrophage-stimulating protein receptor (Homo sapiens) (UniProt Q04912); details: Compound concentration 1000.0 nM
[39] = tested on: Mast/stem cell growth factor receptor Kit (Homo sapiens), P10721 [V559D,T670I]; details: Compound concentration 1000.0 nM
[40] = molecular target: Dual specificity mitogen-activated protein kinase kinase 3 (Homo sapiens) (UniProt P46734); details: Compound concentration 1000.0 nM
[41] = molecular target: Phosphatidylinositol 4-phosphate 3-kinase C2 domain-containing subunit beta (Homo sapiens) (UniProt O00750); details: Compound concentration 1000.0 nM
[42] = molecular target: Dual serine/threonine and tyrosine protein kinase (Homo sapiens) (UniProt Q6XUX3); details: Compound concentration 1000.0 nM
[43] = molecular target: Non-receptor tyrosine-protein kinase TYK2 (Homo sapiens) (UniProt P29597); details: Compound concentration 1000.0 nM
[44] = molecular target: Eukaryotic translation initiation factor 2-alpha kinase 1 (Homo sapiens) (UniProt Q9BQI3); details: Compound concentration 1000.0 nM
[45] = molecular target: Ribosomal protein S6 kinase alpha-1 (Homo sapiens) (UniProt Q15418); details: Compound concentration 1000.0 nM; remark: listed apart in the source

Chain of Ribosomal protein S6 kinase alpha-1 (Homo sapiens) (Q15418 whole entry): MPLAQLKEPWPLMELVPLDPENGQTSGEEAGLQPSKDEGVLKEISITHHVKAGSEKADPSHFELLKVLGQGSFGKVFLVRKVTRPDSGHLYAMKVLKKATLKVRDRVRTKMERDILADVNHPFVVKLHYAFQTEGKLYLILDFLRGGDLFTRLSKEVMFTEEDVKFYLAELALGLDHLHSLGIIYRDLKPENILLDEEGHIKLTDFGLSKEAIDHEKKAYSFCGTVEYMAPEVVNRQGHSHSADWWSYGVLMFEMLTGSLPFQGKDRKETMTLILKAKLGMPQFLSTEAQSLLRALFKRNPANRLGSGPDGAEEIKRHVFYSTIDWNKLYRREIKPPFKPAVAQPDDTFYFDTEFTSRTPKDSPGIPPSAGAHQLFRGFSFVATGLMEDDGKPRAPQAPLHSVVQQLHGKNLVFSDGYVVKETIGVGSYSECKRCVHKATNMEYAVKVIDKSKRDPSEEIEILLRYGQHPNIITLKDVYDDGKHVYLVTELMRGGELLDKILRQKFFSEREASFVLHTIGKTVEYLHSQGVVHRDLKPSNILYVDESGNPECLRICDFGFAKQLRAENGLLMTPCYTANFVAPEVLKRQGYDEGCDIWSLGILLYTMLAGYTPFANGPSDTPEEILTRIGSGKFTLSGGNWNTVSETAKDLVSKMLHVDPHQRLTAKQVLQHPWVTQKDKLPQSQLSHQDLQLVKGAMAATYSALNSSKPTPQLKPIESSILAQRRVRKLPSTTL
Chain of Mitogen-activated protein kinase kinase kinase kinase 4 (Homo sapiens) (O95819 2-1239 limits assumed): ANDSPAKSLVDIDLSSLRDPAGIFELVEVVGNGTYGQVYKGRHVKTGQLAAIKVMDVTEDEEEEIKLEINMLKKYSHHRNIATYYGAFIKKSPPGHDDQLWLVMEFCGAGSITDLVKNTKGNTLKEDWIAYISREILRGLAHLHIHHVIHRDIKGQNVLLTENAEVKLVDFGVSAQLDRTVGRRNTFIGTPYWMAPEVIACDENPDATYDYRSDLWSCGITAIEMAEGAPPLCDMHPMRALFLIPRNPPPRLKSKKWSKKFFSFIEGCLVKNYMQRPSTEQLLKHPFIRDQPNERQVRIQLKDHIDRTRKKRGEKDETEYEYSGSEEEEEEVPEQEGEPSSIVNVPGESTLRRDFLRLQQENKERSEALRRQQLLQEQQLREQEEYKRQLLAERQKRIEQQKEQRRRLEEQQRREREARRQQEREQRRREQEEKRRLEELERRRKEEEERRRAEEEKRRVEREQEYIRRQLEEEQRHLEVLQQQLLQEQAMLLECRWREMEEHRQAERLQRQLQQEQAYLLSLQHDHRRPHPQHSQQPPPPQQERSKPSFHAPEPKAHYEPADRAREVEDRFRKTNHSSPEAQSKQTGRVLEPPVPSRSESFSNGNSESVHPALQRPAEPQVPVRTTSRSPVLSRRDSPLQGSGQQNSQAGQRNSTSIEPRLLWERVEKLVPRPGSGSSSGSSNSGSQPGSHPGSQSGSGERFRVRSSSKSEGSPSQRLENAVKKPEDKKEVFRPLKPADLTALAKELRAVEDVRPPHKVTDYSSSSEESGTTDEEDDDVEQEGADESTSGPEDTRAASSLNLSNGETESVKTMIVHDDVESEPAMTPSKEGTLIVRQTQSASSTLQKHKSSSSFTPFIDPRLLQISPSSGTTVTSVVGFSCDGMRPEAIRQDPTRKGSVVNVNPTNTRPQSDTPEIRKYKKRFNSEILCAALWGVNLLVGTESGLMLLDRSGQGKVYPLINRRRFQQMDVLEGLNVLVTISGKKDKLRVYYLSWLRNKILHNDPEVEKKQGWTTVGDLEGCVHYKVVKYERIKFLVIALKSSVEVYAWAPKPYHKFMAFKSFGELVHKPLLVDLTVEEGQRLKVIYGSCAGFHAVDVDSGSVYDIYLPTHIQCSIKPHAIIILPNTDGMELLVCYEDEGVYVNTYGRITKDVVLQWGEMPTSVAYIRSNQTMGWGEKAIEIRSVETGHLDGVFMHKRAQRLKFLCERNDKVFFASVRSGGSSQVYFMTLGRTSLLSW
Chain of Protein kinase C eta type (Homo sapiens) (P24723 whole entry): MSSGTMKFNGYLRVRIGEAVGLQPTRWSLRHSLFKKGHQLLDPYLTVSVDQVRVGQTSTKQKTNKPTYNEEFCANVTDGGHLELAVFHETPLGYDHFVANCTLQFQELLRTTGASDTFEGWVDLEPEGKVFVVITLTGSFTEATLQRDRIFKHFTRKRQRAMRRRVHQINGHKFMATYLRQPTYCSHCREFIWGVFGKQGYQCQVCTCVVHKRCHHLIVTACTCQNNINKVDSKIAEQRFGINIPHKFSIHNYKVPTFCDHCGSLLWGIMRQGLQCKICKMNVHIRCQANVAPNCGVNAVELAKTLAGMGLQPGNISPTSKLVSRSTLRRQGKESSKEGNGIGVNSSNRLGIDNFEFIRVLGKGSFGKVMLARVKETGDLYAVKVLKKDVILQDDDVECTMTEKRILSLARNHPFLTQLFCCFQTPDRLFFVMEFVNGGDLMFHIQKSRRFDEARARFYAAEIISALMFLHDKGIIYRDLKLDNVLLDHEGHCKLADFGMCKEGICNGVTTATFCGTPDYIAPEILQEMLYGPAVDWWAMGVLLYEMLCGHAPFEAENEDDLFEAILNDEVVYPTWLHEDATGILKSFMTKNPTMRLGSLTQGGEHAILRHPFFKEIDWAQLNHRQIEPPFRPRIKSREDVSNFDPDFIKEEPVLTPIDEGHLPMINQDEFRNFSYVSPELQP
Chain of Tyrosine-protein kinase ABL2 (Homo sapiens) (P42684 whole entry): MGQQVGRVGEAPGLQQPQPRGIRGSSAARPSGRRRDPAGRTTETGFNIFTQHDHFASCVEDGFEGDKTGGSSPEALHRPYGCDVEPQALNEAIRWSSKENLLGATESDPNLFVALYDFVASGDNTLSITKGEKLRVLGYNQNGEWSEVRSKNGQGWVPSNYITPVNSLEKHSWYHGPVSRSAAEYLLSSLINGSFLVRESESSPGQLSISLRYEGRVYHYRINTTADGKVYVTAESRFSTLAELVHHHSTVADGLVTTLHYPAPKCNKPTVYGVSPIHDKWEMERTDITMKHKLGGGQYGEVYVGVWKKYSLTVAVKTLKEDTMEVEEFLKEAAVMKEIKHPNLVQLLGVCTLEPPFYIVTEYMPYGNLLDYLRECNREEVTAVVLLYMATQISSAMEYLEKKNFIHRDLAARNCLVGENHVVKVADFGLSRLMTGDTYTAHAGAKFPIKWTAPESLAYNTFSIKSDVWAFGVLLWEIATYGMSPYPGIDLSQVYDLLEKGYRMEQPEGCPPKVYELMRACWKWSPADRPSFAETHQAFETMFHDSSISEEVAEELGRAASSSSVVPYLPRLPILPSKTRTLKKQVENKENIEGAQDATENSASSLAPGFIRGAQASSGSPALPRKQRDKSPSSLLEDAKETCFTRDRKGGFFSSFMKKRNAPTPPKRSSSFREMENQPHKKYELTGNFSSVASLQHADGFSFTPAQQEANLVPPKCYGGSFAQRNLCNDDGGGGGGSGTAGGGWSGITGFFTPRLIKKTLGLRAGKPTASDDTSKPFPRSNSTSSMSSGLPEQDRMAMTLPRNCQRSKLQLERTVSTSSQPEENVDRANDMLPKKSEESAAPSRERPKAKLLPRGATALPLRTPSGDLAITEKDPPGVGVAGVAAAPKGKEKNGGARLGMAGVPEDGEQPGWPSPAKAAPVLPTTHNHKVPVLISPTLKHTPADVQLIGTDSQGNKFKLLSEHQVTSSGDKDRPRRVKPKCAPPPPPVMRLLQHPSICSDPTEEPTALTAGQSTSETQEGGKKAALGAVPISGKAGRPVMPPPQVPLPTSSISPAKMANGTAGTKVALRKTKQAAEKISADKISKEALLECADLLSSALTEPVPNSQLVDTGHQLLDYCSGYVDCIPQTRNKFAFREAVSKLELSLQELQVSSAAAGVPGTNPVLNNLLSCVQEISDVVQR
Chain of Non-receptor tyrosine-protein kinase TYK2 (Homo sapiens) (P29597 whole entry): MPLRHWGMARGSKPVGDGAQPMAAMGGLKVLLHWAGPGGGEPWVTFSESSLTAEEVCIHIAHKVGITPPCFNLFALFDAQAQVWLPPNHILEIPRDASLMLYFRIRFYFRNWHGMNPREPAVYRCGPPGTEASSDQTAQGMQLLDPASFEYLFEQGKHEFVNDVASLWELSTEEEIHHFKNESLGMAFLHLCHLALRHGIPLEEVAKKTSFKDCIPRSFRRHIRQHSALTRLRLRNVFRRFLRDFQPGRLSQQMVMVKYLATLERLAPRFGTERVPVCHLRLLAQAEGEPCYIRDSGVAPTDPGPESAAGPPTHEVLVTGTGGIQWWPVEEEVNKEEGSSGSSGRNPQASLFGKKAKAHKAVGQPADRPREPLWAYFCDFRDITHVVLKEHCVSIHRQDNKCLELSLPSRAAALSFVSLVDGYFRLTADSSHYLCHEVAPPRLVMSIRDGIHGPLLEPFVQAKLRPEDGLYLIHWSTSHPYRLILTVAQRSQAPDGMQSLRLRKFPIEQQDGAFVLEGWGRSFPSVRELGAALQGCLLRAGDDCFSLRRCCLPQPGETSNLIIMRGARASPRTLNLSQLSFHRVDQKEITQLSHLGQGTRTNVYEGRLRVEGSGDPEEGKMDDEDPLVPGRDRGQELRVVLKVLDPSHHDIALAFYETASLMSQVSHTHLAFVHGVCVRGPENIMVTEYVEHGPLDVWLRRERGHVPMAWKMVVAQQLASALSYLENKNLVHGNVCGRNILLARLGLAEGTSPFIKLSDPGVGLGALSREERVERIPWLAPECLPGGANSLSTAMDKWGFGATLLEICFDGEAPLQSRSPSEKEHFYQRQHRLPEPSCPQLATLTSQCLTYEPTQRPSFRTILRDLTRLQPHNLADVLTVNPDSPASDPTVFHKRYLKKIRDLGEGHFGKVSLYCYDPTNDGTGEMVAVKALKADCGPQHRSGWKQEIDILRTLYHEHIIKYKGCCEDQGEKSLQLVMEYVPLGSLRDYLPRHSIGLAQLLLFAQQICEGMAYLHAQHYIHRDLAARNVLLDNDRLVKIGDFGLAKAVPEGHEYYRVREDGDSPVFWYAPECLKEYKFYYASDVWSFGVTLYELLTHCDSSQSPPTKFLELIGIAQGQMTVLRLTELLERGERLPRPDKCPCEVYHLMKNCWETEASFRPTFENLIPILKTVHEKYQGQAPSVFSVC

Structure (SMILES): O=C(O)[C@@H]1[C@@H](Cn2nnc3ccccc3c2=O)CC[C@H]1C(=O)c1ccc(OCCC2CCOCC2)cc1 [BAY-694]
- residual activity [1]: 100%
- residual activity [2]: 100%
- residual activity [3]: 100%
- residual activity [4]: 99%
- residual activity [5]: 92%
- residual activity [6]: 90%
- residual activity [7]: 100%
- residual activity [8]: 93%
- residual activity [9]: 100%
- residual activity [10]: 100%
- residual activity [11]: 94%
- residual activity [12]: 100%
- residual activity [13]: 100%
- residual activity [14]: 100%
- residual activity [15]: 100%
- residual activity [16]: 92%
- residual activity [17]: 75%
- inhibition [18]: 4.76%
- residual activity [19]: 82%
- residual activity [20]: 100%
- residual activity [21]: 94%
- residual activity [22]: 98%
- residual activity [23]: 100%
- residual activity [24]: 94%
- residual activity [25]: 100%
- residual activity [26]: 100%
- residual activity [27]: 100%
- residual activity [28]: 100%
- residual activity [29]: 100%
- residual activity [30]: 78%
- residual activity [31]: 95%
- residual activity [32]: 79%
- residual activity [33]: 76%
- IC50 [34]: 80 nM (not active)
- residual activity [35]: 93%
- inhibition [36]: -7.25%
- residual activity [37]: 100%
- residual activity [38]: 91%
- residual activity [39]: 98%
- residual activity [40]: 92%
- residual activity [41]: 100%
- residual activity [42]: 84%
- residual activity [43]: 100%
- residual activity [44]: 100%
- residual activity [45]: 100%

Structure (SMILES): O=C(O)[C@H]1[C@H](Cn2nnc3ccccc3c2=O)CC[C@@H]1C(=O)c1ccc(OCCC2CCOCC2)cc1 [BAY-7598]
- residual activity [1]: 100%
- residual activity [2]: 99%
- residual activity [3]: 100%
- residual activity [4]: 90%
- residual activity [5]: 99%
- residual activity [6]: 88%
- residual activity [7]: 91%
- residual activity [8]: 81%
- residual activity [9]: 100%
- residual activity [10]: 90%
- residual activity [11]: 100%
- residual activity [12]: 89%
- residual activity [13]: 100%
- residual activity [14]: 96%
- residual activity [15]: 100%
- residual activity [16]: 95%
- residual activity [17]: 78%
- inhibition [18]: 1.16%
- residual activity [19]: 70%
- residual activity [20]: 100%
- residual activity [21]: 77%
- residual activity [22]: 97%
- residual activity [23]: 99%
- residual activity [24]: 69%
- residual activity [25]: 89%
- residual activity [26]: 85%
- residual activity [27]: 100%
- residual activity [28]: 99%
- residual activity [29]: 82%
- residual activity [30]: 95%
- residual activity [31]: 83%
- residual activity [32]: 89%
- residual activity [33]: 76%
- IC50 [34]: 0.085 nM (active)
- residual activity [35]: 91%
- inhibition [36]: -0.42%
- residual activity [37]: 100%
- residual activity [38]: 96%
- residual activity [39]: 69%
- residual activity [40]: 90%
- residual activity [41]: 90%
- residual activity [42]: 100%
- residual activity [43]: 100%
- residual activity [44]: 78%
- residual activity [45]: 90%
